Values quoted from earlier work in patent US9082274B2, “Odor generation alarm and method for informing unusual situation” (priority 2008, dated 2015).
Like-named read-outs stand apart in the source and are kept apart here.

Tests used:
person [1] = details: with respect to a person, ppm by amount of substance
rats = details: exposed for four hours
mice [2] = details: exposed for four hours
person [3] = details: concentration in air, ppm by amount of substance
domestic rabbits = details: AIT diluted to 0.1% to 10% with corn oil introduced into the eyes
mice [4] = details: oral
[5] = orally administered; route not printed in b8

C=CCN=C=S [AIT, allyl isothiocyanate]
no observed effect concentration (person [1]): 74.3 ppm
lethal inhaled concentration (inhaled LC50) (rats): 173 ppm
lethal inhaled concentration (inhaled LC50) (mice [2]): 155 ppm
concentration at which a person becomes unable to tolerate the atmosphere / strength of smell (person [3]): ≥ 10 ppm
concentration at which a person starts to notice a pungent odor (person [3]): ~1 ppm
concentration from which a person recognizes the smell of wasabi (person [3]): around 5 ppm
concentration at which a person becomes unable to tolerate the atmosphere / strength of smell (person [3]; listed as allyl isothiocyanate): 10 ppm
lachrymatory effect (humans): there is a lachrymatory effect on humans
solubility in water: does not dissolve easily in water
ocular findings after instillation (domestic rabbits): nothing more than transient edema and conjunctival hyperemia
orally administered lethal dose (LD50) (mice [4]): 310 mg/kg
acute dermal toxicity LD50 (rabbits): 88 mg/kg

CS [methyl mercaptan]
effect when entering the eyes (skin, eyes; eye contact): reddening and pain when entering the eyes
effect when coming into contact with the skin (skin, eyes; skin contact): reddening and pain of the skin
lethal dose (LD50) [5]: 2.4 mg/kg
